Each structure is given as a SMILES string. pEC50: −log10 of the molar value. “Also recorded” adds a separate entry of the source. Like-named read-outs stand apart in the source and are kept apart here.

Experimental findings from US20210161915A1, “GABA-A ANTAGONISTS FOR TREATING SUBSTANCE […]” (ASARINA PHARMA APS, priority 2018, published 2021) are described below.

One experiment concerns female Wistar rats. The experiment in a line: Allopregnanolone-induced loss of righting reflex (LoR) test. To be noted: for Animals (%) not showing LoR after allopregnanolone injection: allopregnanolone 2 mg/kg i.v. The format is in vivo, rat. Here is the method:
The compound by 3beta-fluor-5alpha-pregnan-20-one (UC2016) was analyzed for antagonism of the allopregnanolone-induced loss of righting reflex (LoR) in female Wistar rats.
Study design: Allopregnanolone was dissolved 2 mg/ml in 10% 2-hydroxy-beta-cyclodextrin (beta-CD), with the use of ultra sound. 3beta-fluor-5alpha-pregnan-20-one (UC2016) dissolved in MCT (10 mg/ml) was injected s.c. 30 and 60 minutes before i.v. 2 mg/kg allopregnanolone. UC2016, in different concentrations (1-20 mg/kg) were given s.c. 30 or 60 minutes before the acute i.v. allopregnanolone-induced LoR. To study if MCT oil alone interferes with the acute i.v. allopregnanolone-induced LoR, MCT oil was given s.c. 30 or 60 min before the allopregnanolone injection. Doses given were from 1 mg/kg to 20 mg/kg UC2016 s.c.
Animals: Female Wistar rats (n=12) from Taconics, Denmark were used. At arrival rats weighted 250 g. For identification the rats were marked with numbers on their tail with a permanent marker. The animals were housed four in each cage for 6 weeks and thereafter two in each cage at the Umea Centre for Comparative Biology (UCCB) animal facility at Umea University, where also all experiments took place. Housing room temperature was kept at 22-23° C. Lights on and off were monitored 12/12 h light/dark; lights on at 06.00 and off at 18.00. Food and water was available ad libitum. The study protocol was approved by the Regional Ethics Committee of Umeå, Sweden.
Handling: To avoid stress during the experimental session, animals were daily handled the week before testing. Handling included moments used during the test, i.e. holding, tail warming in water, and wrapping in op-blanket.
Solutions: Allopregnanolone (Umecrine AB, batch L00019654), was dissolved in 10% or 30% 2-hydroxypropyl-β-cyclodextrin (HPβ-CD; Sigma, H-107) with the use of ultra sound. MCT oil and Solution of UC2016; 10 mg/ml in MCT oil, were provided by XSpray Microparticles AB (Stockholm).
Allopregnanolone-induced loss of righting reflex (LoR) test: During testing, the rat was weighted, the tail was warmed in water (43° C.) for three minutes, and the rat was wrapped in an op-blanket and hold for injection. The test solution was injected i.v. in one of the tail veins during 30 s (optimal injection rate for allopregnanolone, 4 mg/kg/min, Zhu et al 2001), and the needle then kept in place for additional 30 s. The time point for the end of the actual injection was noted. The rat was then placed in a separate cage and LoR was tested by laying the rat on the right side. Rats with LoR stayed on side, and the time until righting was followed. Rats with no LoR could not be placed on side, as the righting reflex immediate corrected the orientation of the body so that the rat was standing on its paws. The effects of the different injections were followed by the two evaluators for approximately 10 min, and the rat was then taken back to its home cage. LoR is an early event at anesthesia, and this fact is used in the test. Allopregnanolone is a strong anesthetic substance, an agonist at the GABAA receptor, and LoR is in the test induced during the 30 seconds with the injection of the substance. At tests of possible allopregnanolone antagonists, the antagonistic effect is thus observed immediately after the injection, i.e. when the rat is placed in the test cage.

The target of experiment [1] is T1, human alpha1,beta2,gamma2 Long GABAA receptor subtype (Homo sapiens, UniProt P14867+P47870).
T1 construct: expressed in transfected cells; host or cells: HEK-293
T1 sequence (P14867 28-456): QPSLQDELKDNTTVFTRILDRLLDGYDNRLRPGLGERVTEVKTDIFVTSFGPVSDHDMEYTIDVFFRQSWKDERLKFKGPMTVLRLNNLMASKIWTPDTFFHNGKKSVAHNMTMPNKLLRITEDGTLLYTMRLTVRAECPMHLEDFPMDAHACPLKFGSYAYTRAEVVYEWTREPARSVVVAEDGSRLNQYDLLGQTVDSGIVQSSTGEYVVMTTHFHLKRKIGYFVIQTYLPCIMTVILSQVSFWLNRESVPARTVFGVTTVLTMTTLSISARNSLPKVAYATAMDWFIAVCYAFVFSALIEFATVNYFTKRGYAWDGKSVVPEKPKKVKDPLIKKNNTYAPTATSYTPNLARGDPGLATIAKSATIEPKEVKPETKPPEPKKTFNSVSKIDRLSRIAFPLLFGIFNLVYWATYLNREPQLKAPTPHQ
T1 sequence (P47870 25-512 limits assumed): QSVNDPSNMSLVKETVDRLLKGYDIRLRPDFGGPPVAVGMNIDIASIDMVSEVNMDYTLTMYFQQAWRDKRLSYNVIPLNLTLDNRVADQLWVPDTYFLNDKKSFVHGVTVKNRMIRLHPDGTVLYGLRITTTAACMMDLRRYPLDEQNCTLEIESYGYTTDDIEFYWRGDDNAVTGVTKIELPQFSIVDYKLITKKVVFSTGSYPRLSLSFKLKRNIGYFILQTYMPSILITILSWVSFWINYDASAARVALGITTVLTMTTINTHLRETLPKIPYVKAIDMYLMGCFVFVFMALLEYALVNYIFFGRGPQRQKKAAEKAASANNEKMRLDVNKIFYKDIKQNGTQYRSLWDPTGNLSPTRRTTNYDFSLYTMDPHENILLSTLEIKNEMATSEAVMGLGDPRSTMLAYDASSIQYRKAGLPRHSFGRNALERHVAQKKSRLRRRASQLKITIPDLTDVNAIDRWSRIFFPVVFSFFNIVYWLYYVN
T1 sequence (P18507 40-475 partner): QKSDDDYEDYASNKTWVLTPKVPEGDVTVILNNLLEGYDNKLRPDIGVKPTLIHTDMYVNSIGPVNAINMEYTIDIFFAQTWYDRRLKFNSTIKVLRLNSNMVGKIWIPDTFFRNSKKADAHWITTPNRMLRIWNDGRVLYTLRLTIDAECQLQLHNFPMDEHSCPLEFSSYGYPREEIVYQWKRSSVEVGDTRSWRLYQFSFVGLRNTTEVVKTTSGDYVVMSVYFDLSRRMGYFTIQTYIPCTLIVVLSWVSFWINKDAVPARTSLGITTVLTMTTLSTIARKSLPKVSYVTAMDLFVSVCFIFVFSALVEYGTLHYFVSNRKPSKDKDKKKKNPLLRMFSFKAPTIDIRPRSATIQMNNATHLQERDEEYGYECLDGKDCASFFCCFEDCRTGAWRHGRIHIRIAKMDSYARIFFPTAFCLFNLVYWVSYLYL
The experiment in a line: Patch-clamp (Dynaflow system) current response in HEK-293 cells transfected with alpha1,beta2,gamma2 Long GABAA receptor. The format is cell-based. Here is the method:
(§1) In these tests the protocol was optimized to be similar to the physiological conditions in the synaptic cleft.
(§2) Cell culture: HEK-293 cells, permanently transfected with the human alpha1,beta,gamma and alpha4,beta,delta GABAA receptor subtypes, were seeded at a density of 3×10^4/25 cm^2 in a culture flask. The transfected cells were used for patch-clamp experiments 3 days after seeding. When using the cells for patch-clamp experiments the cells were washed twice with oxygen-bubbled extra cellular (EC) solution (see below). About 5 mL EC was then added and the cells were kept in the incubator for about 15 minutes. After 15 minutes the cells came loose from the bottom of the flask and were separated by carefully sucking a couple of times with a Pasteur pipette.
(§3) Dynaflow™ system with Resolve chip was used for patch-clamp experiments: The electrophysiological recordings from HEK-293 cells were performed under voltage-clamp conditions using patch-clamp technique and the Dynaflow™ system (Dynaflow Pro II Platform Zeiss Axiovert 25; Cellectricon AB, Sweden) with Resolve chips as application system.
(§4) Patch pipettes were pulled from borosilicate glass and polished to a resistance 2-5 MΩ when filled with suitable intracellular solution (IC) (pH was adjusted to 7.2) and immersed in bath solution (extracellular, EC) (pH is adjusted to 7.4).
(§5) The recordings were made using an Axopatch 200B amplifier, a Digidata 1322A (Axon instruments, Foster city, USA). Data were analysed using the pCLAMP software sampled at 10 kHz, filtered at 2-10 kHz and analyzed with Clampfit (versions 9.0, both from Axon instruments, Foster city, USA). No higher series resistance than 20 MΩ between pipette and cell membrane was accepted. No series resistance compensation was used. The stability of series resistance was monitored repeatedly from the time course of capacitative transients during the experiments. The measured liquid-junction potential between EC and IC was subtracted in all data presented. All experiments were performed at room temperature (21-23° C.).
(§6) All steroids were dissolved to the concentration of 6 mM in DMSO. […] End solutions were the solutions added into the wells of the chip.
(§7) Electrophysiology: After compensating for the liquid junction potential a steady holding potential of −17 mV was used in all experiments. […] By using the holding potential of −17 mV and the intracellular solution with low chloride ion concentration the chloride ions flux into the cell when the receptors were activated.
The Dynaflow system allowed application of solutions for as short as 40 ms up to minutes in time.
In the experiments, THDOC and 3alpha-OH-adiol were used as the positive GABAA receptor modulating steroids.
(§8) Different incubation times were studied to achieve the optimal time for attaining stable results and minimize the washout time.
Study design: Studies were conducted on current response mediated by chloride ion flux through the GABAA receptor. […] The same patch-clamp technique was used as described above (Example 1) using the Dynaflow™ application system. THDOC was used as positive GABAA receptor modulating steroid as it has shorter washout time compared to allopregnanolone but works with the same mechanisms on the same GABAA receptor binding site as allopregnanolone.
HEK-293 cells, permanently transfected with cDNA expressing the human alpha1,beta2,gamma2 Long GABAA receptor subtype. The tissue culture and the handling of the cells were as described in Example 1. In the patch-clamp experiments the transfected cells were used minimum two passages after defrosting and 3 days after seeding. The cells were seeded for maximal 25 times.

In experiment [2] the target is T2, human alpha4,beta,delta GABAA receptor subtype (Homo sapiens, UniProt P28472+P48169).
T2 construct: expressed in transfected cells; host or cells: HEK-293
T2 sequence (P48169 36-554): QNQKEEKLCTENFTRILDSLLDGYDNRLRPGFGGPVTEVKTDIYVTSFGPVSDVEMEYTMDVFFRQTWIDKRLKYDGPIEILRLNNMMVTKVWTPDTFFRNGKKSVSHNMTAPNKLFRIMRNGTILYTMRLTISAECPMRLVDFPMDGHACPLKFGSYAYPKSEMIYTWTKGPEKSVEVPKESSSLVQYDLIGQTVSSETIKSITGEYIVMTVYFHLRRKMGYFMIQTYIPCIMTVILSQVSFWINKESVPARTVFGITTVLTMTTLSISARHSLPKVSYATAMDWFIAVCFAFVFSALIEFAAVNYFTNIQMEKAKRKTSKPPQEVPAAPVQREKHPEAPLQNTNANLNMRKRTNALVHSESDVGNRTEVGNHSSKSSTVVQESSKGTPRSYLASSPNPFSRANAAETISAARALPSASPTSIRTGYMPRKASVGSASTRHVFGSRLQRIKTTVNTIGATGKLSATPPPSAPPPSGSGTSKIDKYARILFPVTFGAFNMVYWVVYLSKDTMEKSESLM
T2 sequence (P28472 26-473): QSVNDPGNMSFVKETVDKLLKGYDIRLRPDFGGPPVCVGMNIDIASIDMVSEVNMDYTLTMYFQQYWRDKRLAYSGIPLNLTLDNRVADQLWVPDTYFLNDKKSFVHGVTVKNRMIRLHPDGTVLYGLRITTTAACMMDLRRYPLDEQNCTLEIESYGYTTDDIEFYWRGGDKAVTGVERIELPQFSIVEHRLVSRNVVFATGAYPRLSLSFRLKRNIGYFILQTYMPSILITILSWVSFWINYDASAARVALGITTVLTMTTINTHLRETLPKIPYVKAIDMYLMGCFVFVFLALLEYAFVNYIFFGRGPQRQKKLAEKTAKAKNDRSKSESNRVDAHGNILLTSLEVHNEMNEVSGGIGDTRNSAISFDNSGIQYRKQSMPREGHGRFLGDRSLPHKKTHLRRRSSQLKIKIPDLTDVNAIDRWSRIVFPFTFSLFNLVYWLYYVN
T2 sequence (O14764 17-452 partner limits assumed): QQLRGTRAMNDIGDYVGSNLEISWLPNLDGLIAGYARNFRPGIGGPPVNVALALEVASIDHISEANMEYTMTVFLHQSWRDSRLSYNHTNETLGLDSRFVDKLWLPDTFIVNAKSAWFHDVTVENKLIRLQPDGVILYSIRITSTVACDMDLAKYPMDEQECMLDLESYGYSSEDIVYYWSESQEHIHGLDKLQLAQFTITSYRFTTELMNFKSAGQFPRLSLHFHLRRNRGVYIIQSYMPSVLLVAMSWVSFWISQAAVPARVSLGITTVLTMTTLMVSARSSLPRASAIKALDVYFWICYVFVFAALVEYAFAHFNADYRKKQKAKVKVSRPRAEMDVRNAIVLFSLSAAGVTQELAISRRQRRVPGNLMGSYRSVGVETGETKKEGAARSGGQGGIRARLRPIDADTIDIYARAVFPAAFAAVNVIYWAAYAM
The experiment in a line: Patch-clamp (Dynaflow system) current response in HEK-293 cells transfected with alpha4,beta3,delta GABAA receptor. It is filed as cell-based. Here is the method: as §1, §2, §3, §4, §5, §6, §7
The Dynaflow system allowed application of solutions for as short as 40 ms up to minutes in time. […] There was no difference in response between the second and the third GABA application. Therefore, the first GABA application was always repeated twice and the second response was used in the analysis.
Washout: GABA is quite soluble in water and easy to washout from the receptor. […] Steroids on the other hand were difficult to dissolve in water and also difficult to washout from the receptor. In the experiments, THDOC and 3alpha-OH-adiol were used as the positive GABAA receptor modulating steroids. With 2 minutes washout time, 200 nM THDOC and 3alpha-OH-adiol was completely washed out as shown by neither an accumulative nor a desensitization effect.
as §8

`CC(=O)[C@H]1CC[C@H]2[C@@H]3CC[C@H]4C[C@H](O)CC[C@]4(C)[C@H]3CC[C@]12C` [Allopregnanolone, allopregnanolone, reference compound]: in the experiment with female Wistar rats (allopregnanolone 2 mg/kg i.v. alone), the “Induction of LoR” value is “induces LoR in all female Wistar rats”.

As to `C[C@]12CC[C@@H](O)C[C@@H]1CC[C@@H]1[C@@H]2CC[C@]2(C)C(O)CC[C@@H]12` (stereo partly drawn) [Androstanediol, 3alpha-hydroxy-5alpha-androstan-17-ol, reference compound], the results for the pEC50 in experiment [1] and in experiment [2] were 5.47 and 6.42, respectively. Also, the “Androstanediol effect without GABA” value in experiment [1] (data not shown) is “no effect without GABA”. In addition, the entries for the “Baseline shift, current response in absence of GABA, Mean ± SEM pA” value in experiment [2] (3 μM Androstanediol) and in experiment [2] (10 μM Androstanediol) were “+8 ± 3.6 pA” and “+13 ± 4.8 pA”, respectively.

`C[C@]12CC[C@@H](O)C[C@H]1CC[C@@H]1[C@@H]2CC[C@]2(C)[C@@H](C(=O)CO)CC[C@@H]12` [THDOC, Tetrahydrodeoxycorticosterone, reference compound]: the Imax/Emax entry in experiment [1] (0.03-1 μM THDOC + 30 μM GABA) is “+115%”. Besides, in experiment [1] (without GABA), the “THDOC induced tonic effect (baseline shift)” value is “did not induce any baseline shift”. Also, the “Emax, enhancement of GABA mediated current response” value in experiment [2] is 297%. For the same molecule, the pEC50 in experiment [2] (read-out: EC50, enhancement of GABA mediated current response) is 7.33. The “THDOC induced baseline shift” value in experiment [2] (without GABA, data not shown) is recorded as “induces a baseline shift”.

Turning to `CC(=O)[C@H]1CC[C@H]2[C@@H]3CC[C@H]4C[C@@H](F)CC[C@]4(C)[C@H]3CC[C@]12C` [UC2016, 3beta-fluor-5alpha-pregnan-20-one], the “[UC2016] + 30 μM GABA + 200 nM THDOC, Mean ± SEM (%)” value in experiment [1] (0.1 μM UC2016) is given as −4.7 ± 3.5%; in experiment [1] (0.3 μM UC2016), −11.6 ± 5.5%; in experiment [1] (1 μM UC2016) it was −25.1 ± 3.5%. Besides, the “Imax/Emax, effect on GABA response” value in experiment [1] (1 μM UC2016 + 30 μM GABA) was −8.6 ± 1.7%. The “Effect of compound alone (baseline shift)” value in experiment [1] (1 μM UC2016, absence of GABA) is on record as “no effect on baseline shift; also recorded: UC2016 had no effect in absence of GABA”. The “Antagonism of allopregnanolone induction of LoR” value in the experiment with female Wistar rats (1 mg/kg s.c., 60 min before allopregnanolone) is given as “clearly antagonized”. Also, the “Inhibition of LoR induction by allopregnanolone” value in the experiment with female Wistar rats (5 mg/kg s.c., 30 minutes before allopregnanolone) is recorded as “not”; with female Wistar rats (5 mg/kg s.c., 60 minutes before allopregnanolone) it was “had an inhibitory effect”; with female Wistar rats (10 mg/kg or higher s.c., 30 min before allopregnanolone) it was “inhibited LoR induction”. The “Animals (%) not showing LoR after allopregnanolone injection” value in the experiment on female Wistar rats (UC2016 1 mg/kg s.c. in MCT oil) is on record as 100%; in the experiment with female Wistar rats (UC2016 2 mg/kg s.c. in MCT oil) it was 80%; in the experiment on female Wistar rats (UC2016 10 mg/kg s.c. in MCT oil), 100%; with female Wistar rats (UC2016 20 mg/kg s.c. in MCT oil), 100%.
